Experiments:
[1] = target: hGal-3 (Homo sapiens, UniProt P17931); test: ITC; assay type: binding
[2] = target: hGal-1 (Homo sapiens, UniProt P09382); test: ITC; assay type: binding
Sequence of hGal-1 (P09382 2-135): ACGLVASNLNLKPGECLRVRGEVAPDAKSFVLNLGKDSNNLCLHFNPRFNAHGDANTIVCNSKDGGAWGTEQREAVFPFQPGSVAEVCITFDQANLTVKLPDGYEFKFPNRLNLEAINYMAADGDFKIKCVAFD

Sequence of hGal-3 (P17931 2-250): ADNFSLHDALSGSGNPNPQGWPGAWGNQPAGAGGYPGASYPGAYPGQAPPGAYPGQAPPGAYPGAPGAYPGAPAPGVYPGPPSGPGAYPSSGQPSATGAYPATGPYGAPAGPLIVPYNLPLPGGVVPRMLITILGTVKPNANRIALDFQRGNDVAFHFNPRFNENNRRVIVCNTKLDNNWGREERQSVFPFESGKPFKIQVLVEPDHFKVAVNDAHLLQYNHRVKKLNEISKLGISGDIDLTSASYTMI

OC[C@H]1O[C@@H]([Se][Se][C@@H]2O[C@H](CO)[C@H](O)[C@H](O)[C@H]2O)[C@H](O)[C@@H](O)[C@H]1O [DSeDG]
Kd [1]: 2800 ± 180 µM

OC[C@H]1O[C@@H]([Se][C@@H]2O[C@H](CO)[C@H](O)[C@H](O)[C@H]2O)[C@H](O)[C@@H](O)[C@H]1O [SeDG]
Kd [1]: 93.1 ± 2.6 µM
Kd [2]: 108 ± 1.4 µM

CC(=O)N[C@H]1[C@H](O[C@H]2[C@@H](O)[C@@H](CO)O[C@@H](O[C@H]3[C@H](O)[C@@H](NC(C)=O)[C@H](OCCN=[N+]=[N-])O[C@@H]3CO)[C@@H]2O)O[C@H](CO)[C@@H](O[C@@H]2O[C@H](CO)[C@H](O)[C@H](O)[C@H]2O)[C@@H]1O [compound 1, 2‐Azidoethyl (β‐D‐galactopyranosyl)‐(1→4)‐(2‐acetamido‐2‐deoxy‐β‐D‐glucopyranosyl)‐(1→3)‐(β‐D‐galactopyranosyl)‐(1→4)‐2‐acetamido‐2‐deoxy‐β‐D‐glucopyranoside]
Kd [1]: 5.6 ± 0.1 µM
Kd [2]: 94.7 ± 2.2 µM

CC(=O)N[C@H]1[C@H](O[C@H]2[C@@H](O)[C@@H](CO)O[C@@H](O[C@H]3[C@H](O)[C@@H](O)[C@H](OCCCN)O[C@@H]3CO)[C@@H]2O)O[C@H](CO)[C@@H](O)[C@@H]1O[C@@H]1O[C@H](CO)[C@H](O)[C@H](O)[C@H]1O [compound 2, 3‐Aminopropyl (β‐D‐galactopyranosyl)‐(1→3)‐(2‐acetamido‐2‐deoxy‐β‐D‐glucopyranosyl)‐(1→3)‐(β‐D‐galactopyranosyl)‐(1→4)‐β‐D‐glucopyranoside]
Kd [1]: 28.1 ± 0.5 µM
Kd [2]: 175 ± 3.2 µM

Source: paper PMC7839768 (Chemistry (Weinheim an Der Bergstrasse, Germany), 2020)
